Test results taken from ChEMBL document CHEMBL1201862, “PubChem BioAssay data set” (2004).
The source made the active and inactive calls. For most assays here, no stated cut-off is given here; in the data, actives have a measured EC50 and inactives only a lower limit.

How the values were obtained:
Protein RecA = target: T1, Protein RecA (Mycobacterium tuberculosis, UniProt P9WHJ3); assay: Fluorescence Cell-Free Homogeneous Dose Retest to Identify Inhibitors of RecA-Intein Splicing Activity. [Related pubchem assays (depositor defined):AID2097, AID2223, AID489010, AID492950]; assay type: functional
T1 sequence (P9WHJ3 whole entry): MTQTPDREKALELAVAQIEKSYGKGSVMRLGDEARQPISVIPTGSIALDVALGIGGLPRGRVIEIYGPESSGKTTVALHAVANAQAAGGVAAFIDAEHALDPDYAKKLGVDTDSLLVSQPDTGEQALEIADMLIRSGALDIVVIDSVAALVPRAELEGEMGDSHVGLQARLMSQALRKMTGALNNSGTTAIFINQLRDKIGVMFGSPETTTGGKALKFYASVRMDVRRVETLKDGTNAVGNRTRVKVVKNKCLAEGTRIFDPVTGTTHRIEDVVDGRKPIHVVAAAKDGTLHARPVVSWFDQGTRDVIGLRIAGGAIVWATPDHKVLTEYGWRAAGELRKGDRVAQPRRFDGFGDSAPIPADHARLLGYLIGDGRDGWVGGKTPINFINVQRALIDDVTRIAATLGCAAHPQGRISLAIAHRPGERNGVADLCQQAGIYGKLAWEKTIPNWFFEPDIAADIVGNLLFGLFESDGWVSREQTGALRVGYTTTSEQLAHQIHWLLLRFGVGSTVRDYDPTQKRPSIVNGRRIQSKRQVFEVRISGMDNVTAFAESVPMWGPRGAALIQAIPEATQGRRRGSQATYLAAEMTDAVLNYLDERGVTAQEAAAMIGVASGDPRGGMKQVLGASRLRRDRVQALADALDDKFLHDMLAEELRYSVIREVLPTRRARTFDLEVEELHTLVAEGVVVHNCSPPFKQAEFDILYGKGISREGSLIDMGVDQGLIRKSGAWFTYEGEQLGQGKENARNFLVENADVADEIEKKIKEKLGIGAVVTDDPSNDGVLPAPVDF

[1] = target: T2, Replicative DNA helicase DnaB (Mycobacterium tuberculosis, UniProt P9WMR3); assay: DnaB intein splicing inhibitors, dose response, biochemical, cell-free fluorescence (AID 449749); assay type: functional
T2 sequence (P9WMR3 whole entry): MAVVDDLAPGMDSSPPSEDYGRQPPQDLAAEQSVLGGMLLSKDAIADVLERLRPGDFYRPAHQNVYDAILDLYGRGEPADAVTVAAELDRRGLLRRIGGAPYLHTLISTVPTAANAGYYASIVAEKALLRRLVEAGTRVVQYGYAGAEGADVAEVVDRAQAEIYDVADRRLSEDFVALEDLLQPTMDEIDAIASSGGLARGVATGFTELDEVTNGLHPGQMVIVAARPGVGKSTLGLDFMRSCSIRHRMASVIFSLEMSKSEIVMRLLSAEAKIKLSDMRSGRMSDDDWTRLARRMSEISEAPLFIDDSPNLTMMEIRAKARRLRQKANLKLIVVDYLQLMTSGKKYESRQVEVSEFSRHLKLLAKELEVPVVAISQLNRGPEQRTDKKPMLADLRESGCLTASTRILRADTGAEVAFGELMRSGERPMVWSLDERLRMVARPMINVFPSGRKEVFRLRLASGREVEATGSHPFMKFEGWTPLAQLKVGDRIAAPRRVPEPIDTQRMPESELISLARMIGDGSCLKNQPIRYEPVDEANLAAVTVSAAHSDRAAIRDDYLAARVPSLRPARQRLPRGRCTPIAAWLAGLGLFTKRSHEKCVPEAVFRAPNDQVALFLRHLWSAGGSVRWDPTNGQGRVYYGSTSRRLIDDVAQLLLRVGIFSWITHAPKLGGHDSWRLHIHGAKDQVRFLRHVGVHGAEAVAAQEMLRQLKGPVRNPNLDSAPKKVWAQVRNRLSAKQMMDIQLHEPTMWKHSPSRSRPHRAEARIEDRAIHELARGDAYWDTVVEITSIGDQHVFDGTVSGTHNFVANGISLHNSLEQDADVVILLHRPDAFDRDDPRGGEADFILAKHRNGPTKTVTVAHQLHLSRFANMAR

[2] = target: T3, Heat shock factor protein 1 (Mus musculus, UniProt P38532); assay: decrease of HSF1-responsive luciferase luminescence – cell-based, NIH3T3, dose retest, confirmation (AID 2382); assay type: functional;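 further: NIH3T3 fibroblasts with HSF1-driven luciferase reporter stressed by proteasome inhibitor MG132; luminescence from HSF1-driven luciferase expression after 8 hours of MG132 stress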
T3 sequence (P38532 whole entry): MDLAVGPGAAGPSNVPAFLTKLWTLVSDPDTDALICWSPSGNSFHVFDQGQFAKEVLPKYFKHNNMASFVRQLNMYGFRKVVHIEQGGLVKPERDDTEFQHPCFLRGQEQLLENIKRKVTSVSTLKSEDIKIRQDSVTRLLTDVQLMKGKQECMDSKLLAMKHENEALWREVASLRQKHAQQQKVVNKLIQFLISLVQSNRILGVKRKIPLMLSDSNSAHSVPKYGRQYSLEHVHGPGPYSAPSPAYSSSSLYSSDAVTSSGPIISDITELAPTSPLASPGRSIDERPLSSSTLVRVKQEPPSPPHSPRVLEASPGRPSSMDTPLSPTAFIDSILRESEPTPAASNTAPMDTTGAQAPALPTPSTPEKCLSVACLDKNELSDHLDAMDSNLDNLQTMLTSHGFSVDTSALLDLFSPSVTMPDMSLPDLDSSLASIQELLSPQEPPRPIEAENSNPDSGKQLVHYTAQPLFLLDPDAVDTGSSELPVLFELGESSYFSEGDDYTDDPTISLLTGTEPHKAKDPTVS

cells [3] = assay type: functional, cell-based
cells [4] = assay type: functional, cell-based; remark: listed apart in the source
[5] = Luminescence Cell-Based Dose Response HTS to Identify Activators of Luciferase Translation or Activity in H4 […] Cells. [Related pubchem assays: 1829 (Project Summary), 1814 (Primary HTS)]; assay type: functional
[6] = viability of uninfected HEp-2 cells – cell-based, HTS, cytotoxicity control for RSV inhibitor project, dose response (AID 2410); assay type: functional; settings: human respiratory syncytial virus
H4 = assay: Luminescence Cell-Based Dose Response HTS to Identify Activators of 5'UTR Stem-Loop Driven Prion Protein mRNA Translation in H4 Neuroglioblastoma Cells. [Related pubchem assays: 1829 (Project Summary), 1814 (Primary HTS)]; assay type: functional; settings: Homo sapiens
[7] = target: T4, Carboxy-terminal domain RNA polymerase II polypeptide A small phosphatase 1 (Homo sapiens, UniProt Q9GZU7); assay: CTDSP1 inhibitors, concentration-response, biochemical, absorbance readout, ultra-high-throughput screen actives (AID 540297); assay type: functional
T4 sequence (Q9GZU7 whole entry): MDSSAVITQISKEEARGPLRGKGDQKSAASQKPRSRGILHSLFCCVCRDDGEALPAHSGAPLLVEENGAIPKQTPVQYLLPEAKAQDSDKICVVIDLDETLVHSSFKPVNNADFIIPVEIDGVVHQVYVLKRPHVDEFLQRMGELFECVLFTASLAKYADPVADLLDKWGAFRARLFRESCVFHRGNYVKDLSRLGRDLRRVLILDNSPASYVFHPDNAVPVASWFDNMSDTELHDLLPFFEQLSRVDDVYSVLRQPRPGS

[8] = target: T5, RNA-binding protein pos-1 (Caenorhabditis elegans, UniProt G5EF15); assay: disruptors of C. elegans POS-1 RNA interaction – biochemical, fluorescence polarization, dose response (AID 1964);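 further: purified POS-1 fused to maltose binding protein made in E. coli; potency of compounds blocking POS-1 binding to fluorescent RNA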
T5 sequence (G5EF15 whole entry): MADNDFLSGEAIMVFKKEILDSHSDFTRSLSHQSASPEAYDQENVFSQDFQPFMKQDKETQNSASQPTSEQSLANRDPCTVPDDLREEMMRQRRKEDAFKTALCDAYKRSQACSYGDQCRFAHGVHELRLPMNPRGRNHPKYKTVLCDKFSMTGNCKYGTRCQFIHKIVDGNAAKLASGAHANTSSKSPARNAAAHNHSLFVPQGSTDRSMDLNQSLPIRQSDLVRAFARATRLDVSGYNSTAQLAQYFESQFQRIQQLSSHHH

[9] = target: T6, Zinc finger protein mex-5 (Caenorhabditis elegans, UniProt Q9XUB2); assay: potency of MEX-5 RNA-binding blockers – biochemical, C. elegans, fluorescence polarization, dose response (AID 1960)
T6 sequence (Q9XUB2 whole entry): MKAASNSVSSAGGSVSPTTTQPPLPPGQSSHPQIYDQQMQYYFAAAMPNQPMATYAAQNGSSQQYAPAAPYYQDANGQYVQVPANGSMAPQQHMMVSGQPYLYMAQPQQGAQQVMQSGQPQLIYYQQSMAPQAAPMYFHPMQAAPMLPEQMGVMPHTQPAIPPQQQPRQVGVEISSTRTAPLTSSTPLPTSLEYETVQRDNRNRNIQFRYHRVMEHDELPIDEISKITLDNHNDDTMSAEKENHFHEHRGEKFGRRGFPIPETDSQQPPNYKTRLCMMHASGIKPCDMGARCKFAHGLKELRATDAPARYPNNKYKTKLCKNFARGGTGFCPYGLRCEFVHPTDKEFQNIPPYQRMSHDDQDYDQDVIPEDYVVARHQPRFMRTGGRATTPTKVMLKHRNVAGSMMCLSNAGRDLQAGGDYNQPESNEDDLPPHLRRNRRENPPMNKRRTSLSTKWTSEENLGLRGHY

H9c2 = assay: cells; assay type: functional, cell-based; settings: Rattus norvegicus, H9c2, Myocardium
Cytochrome P450 3A4 = Cytochrome P450 3A4 (Homo sapiens, UniProt P08684);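 further: CYP3A4 tested as one member of a cytochrome P450 panel screen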
Cytochrome P450 2C9 = Cytochrome P450 2C9 (Homo sapiens, UniProt P11712)
Chain of Cytochrome P450 2C9 (P11712 whole entry): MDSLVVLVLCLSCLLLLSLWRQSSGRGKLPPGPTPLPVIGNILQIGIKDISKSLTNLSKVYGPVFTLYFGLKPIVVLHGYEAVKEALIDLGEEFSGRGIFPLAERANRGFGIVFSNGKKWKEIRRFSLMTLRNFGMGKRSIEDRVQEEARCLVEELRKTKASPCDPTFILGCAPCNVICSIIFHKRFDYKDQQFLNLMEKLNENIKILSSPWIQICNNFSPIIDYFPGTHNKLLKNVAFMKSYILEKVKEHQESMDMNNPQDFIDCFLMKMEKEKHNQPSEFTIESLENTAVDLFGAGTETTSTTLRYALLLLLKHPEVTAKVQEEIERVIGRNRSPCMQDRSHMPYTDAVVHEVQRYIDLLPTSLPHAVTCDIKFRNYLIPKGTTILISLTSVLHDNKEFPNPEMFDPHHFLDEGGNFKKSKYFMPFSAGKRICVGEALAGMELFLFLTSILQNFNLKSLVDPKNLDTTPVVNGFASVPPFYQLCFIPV

Chain of Cytochrome P450 3A4 (P08684 whole entry): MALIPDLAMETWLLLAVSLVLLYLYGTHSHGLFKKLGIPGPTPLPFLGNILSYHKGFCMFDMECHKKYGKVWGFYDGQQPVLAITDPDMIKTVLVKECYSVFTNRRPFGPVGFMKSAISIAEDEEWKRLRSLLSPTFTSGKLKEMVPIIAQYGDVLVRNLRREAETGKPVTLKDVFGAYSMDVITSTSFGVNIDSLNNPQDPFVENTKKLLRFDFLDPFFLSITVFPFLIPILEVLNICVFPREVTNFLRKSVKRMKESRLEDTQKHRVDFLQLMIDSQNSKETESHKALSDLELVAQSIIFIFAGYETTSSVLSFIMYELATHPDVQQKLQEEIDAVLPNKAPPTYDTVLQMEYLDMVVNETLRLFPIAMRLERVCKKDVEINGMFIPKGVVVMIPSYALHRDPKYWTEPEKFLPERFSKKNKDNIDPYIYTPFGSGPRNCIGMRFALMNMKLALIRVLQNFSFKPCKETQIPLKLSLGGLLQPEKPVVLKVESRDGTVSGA

## Cc1ccc(C2C(C#N)=C(N)Oc3[nH]nc(C)c32)cc1 (configuration not stated)
Protein RecA
  EC50: 3.56 µM (active)
[1]
  AC50: 7.89 µM (active)

## CCOC(=O)c1ccc(NC(=O)CC2COc3ccccc3O2)cc1 (configuration not stated)
[2]
  EC50: > 195 µM (not active)

## Cc1cc(N2CCC(C)CC2)n2ncc(-c3ccccc3)c2n1
[2]
  EC50: < 0.16 µM (active)

## CCCc1n[nH]c2c1C(c1cccc(OC(=O)c3ccco3)c1)C(C#N)=C(N)O2 (configuration not stated)
Protein RecA
  EC50: 4.91 µM (active)
[1]
  AC50: 5.48 µM (active)

## CCc1ccc(C2C(=O)c3ccccc3C2=O)cc1
Cells [3]
  EC50: 30.8 µM (active)
Cells [4]
  EC50: > 350 µM (not active)

## CCOC(=O)c1c(C)oc2c1c1c(c3ccccc32)OCN(CCCC(=O)O)C1
[5]
  EC50: 22.8 µM (active)
Protein RecA
  EC50: 4.11 µM (active)
[6]
  CC50: 43.6 µM (active)
[1]
  AC50: > 120 µM (inactive)
H4
  EC50: 11 µM (active)

## COC(=O)c1[nH]c2ccccc2c1/C=C1\C(=O)NC(=O)N(c2cc(OC)ccc2OC)C1=O
Cells [3]
  EC50: 73.1 µM (active)
Cells [4]
  EC50: > 350 µM (not active)

## Cc1nc2c(ncn2-c2ccccc2)c(=O)n1NC(=O)CN1CCOCC1
[2]
  EC50: > 195 µM (not active)

## CCc1ccc(OCc2cccc(C(=O)N/N=C\c3cnn(C)c3C)c2)cc1
[7]
  IC50: 9.07 µM (active)

## Cc1cc(Cl)ccc1OC(C)C(=O)NC(C)C1CCCO1 (configuration not stated)
[2]
  EC50: > 195 µM (not active)

## Cc1cccc(C)c1NC(=O)CN1C(=O)S/C(=C\c2cccn2-c2cccc(C(=O)O)c2)C1=O
[8]
  EC50: > 300 µM (not active)
[7]
  IC50: 6.71 µM (active)
[9]
  EC50: 60 µM (active)

## O=C(Nc1ccnn1C1CCN(CC2CC=CCC2)CC1)c1ccccc1 (configuration not stated)
[8]
  EC50: 43.2 µM (active)
[9]
  EC50: 52.3 µM (active)

## COc1ccc(CCNC(=O)c2nnn(CC(=O)Nc3c(C)cc(C)cc3C)c2N)cc1OC
Cells [3]
  EC50: > 350 µM (not active)
Cells [4]
  EC50: > 350 µM (not active)

## O=C(COC(=O)CCc1nc(O)c2ccccc2n1)Nc1c(Cl)cccc1C(F)(F)F
H9c2
  IC50: > 79 µM (inactive)
[2]
  EC50: > 195 µM (not active)

## C#CCOc1ccc(Br)cc1C(c1c(C)n[nH]c1O)c1c(C)n[nH]c1O
Protein RecA
  EC50: 1.03 µM (active)
[1]
  AC50: 0.973 µM (active)

## Cc1ccccc1NC(=O)CN1C(=O)S/C(=C\c2cccn2-c2cccc(C(=O)O)c2)C1=O
[8]
  EC50: > 300 µM (not active)
[7]
  IC50: 4.23 µM (active)
[9]
  EC50: > 300 µM (not active)

## O=C1CCN(S(=O)(=O)c2ccccc2)N1
Cytochrome P450 3A4
  AC50: 28.2 µM (inconclusive)
Cytochrome P450 2C9
  AC50: 12.6 µM (inconclusive)
Protein RecA
  EC50: 3.73 µM (active)
[1]
  AC50: 31.2 µM (active)

## Cc1sc(-c2ccccn2)nc1OC(=O)c1cccc(Cl)c1Cl
[8]
  EC50: > 300 µM (not active)
[9]
  EC50: > 300 µM (not active)

## O=C(COC(=O)C1CCCC1)Nc1ncc(Cl)cc1Cl
[8]
  EC50: > 300 µM (not active)
[9]
  EC50: 34.3 µM (active)

## O=C(O)CSc1ccccc1C(=O)O
[2]
  EC50: > 195 µM (not active)

## COc1cccc(-n2c(N)c(-c3nc4ccccc4[nH]3)sc2=S)c1
[2]
  EC50: > 195 µM (not active)

## COc1cccc(C(=O)c2cn(CC(=O)NCc3ccco3)c3nc(C)ccc3c2=O)c1
[7]
  IC50: 11.2 µM (active)

## COC(=O)C1=C(COc2ccccc2)NC(=O)NC1c1ccc2ccccc2c1 (configuration not stated)
[7]
  IC50: 13.8 µM (active)

## O=C(COC(=O)c1ccc2c(c1Cl)C(=O)c1ccccc1C2=O)NC1CC1
Protein RecA
  EC50: 12.9 µM (active)
[1]
  AC50: 26.2 µM (active)

## CCCOc1ccc(C(=O)C2=C(O)C(=O)N(CCN(C)C)C2c2ccc(O)c(OC)c2)cc1 (configuration not stated)
[2]
  EC50: > 195 µM (not active)

## O=C(N/N=C/c1ccccn1)c1cc(-c2ccc(Br)s2)n[nH]1
[7]
  IC50: 8.5 µM (active)

## COc1ccccc1/C=C/CN1CCC(Oc2cc(C(=O)NC3CC3)ccc2OC)CC1
[2]
  EC50: > 195 µM (not active)

## NN1C(=O)/C(=C2/Sc3ccccc3N2CCCS(=O)(=O)O)SC1=S
[7]
  IC50: 8.53 µM (active)

## COCCN1CCC(CNCc2c(C(=O)N3CCCCC3)nc3c(C)cccn23)C1 (configuration not stated)
[8]
  EC50: > 300 µM (not active)
[9]
  EC50: > 300 µM (not active)
